Source: PMC12751141, “Disrupting α-Synuclein–ClpP interaction restores mitochondrial function and attenuates neuropathology in Parkinson’s disease models” (Molecular Neurodegeneration, 2025)

How the values were obtained:
ClpP = test system: ClpP
Procedure: ClpP peptidase activity in vitro was measured as previously described (REF). Briefly, human recombinant ClpP (10 µM, obtained from Dr. Aaron Schimmer, Princes Margartet Cancer Centre, Canada) were incubated in the reaction buffer (50mM Tris PH 8.0, 200mM KCl, 1mM DTT, 2mM ATP) under 37 °C for 10 min. For co-incubation with αSyn, recombinant ClpP and WT or C-terminal truncated or NAC-domain truncated recombinant αSyn (S-1001-1, S-1012-1, S-1015-1, rPeptide) were pre-incubated for 30 min under room temperature. Fluorescent substrate of ClpP, ac-WLA-AMC (50 µM), were then added in the reaction buffer. The fluorescence signal was read using TECAN infinite M1000 up for 30 min at excitation/emission wavelength 345/445. ClpP peptidase activity were determined as the slope of the regression line.
(C) In vitro ClpP peptidase activity was measured in presence of TAT or CS2 peptide (50/100 µM). The fluorescence intensity of ac-WLA-AMC (50 µM), a fluorogenic substrate of ClpP, was measured (0-30 min). Quantification of ClpP activity (n = 5, one-way ANOVA with Tukey’s post-hoc test; data are mean ± SEM).

[1] = test system: A53T-αSyn iPSC-derived neurons; assay: Mitochondrial function (Mito-SOX, TMRM, ATP) in A53T-αSyn iPSC-derived neurons; type: cell-based, human
Excerpt: PD iPS cells lines (αSyn A53T, NN0004337, donor) and its isogenic corrected control line (NN0004344) were obtained from RUCDR Infinite Biologics. The iPS cells were differentiated into dopaminergic neuron-enriched neuronal culture with the protocol described previously. Briefly, iPS cell colonies were disassociated with accutase (Invitrogen), plated onto 6-well plates pre-coated with 2.5% Matrigel (BD Biosciences) and allowed to reach 80% confluence in mTeSR medium (Stem Cell Technology). For the first 10 days, cells were treated with SB431542 (10 µM; Tocris Bioscience) and Noggin (100 ng/ml) in Neural Media (NM) with FGF2 ([…]) and EGF ([…]). NM media contained: Neurobasal and DMEM/F12 (1:1), B-27 Supplement Minus Vitamin A (50×, Invitrogen), N2 Supplement (100X, Invitrogen), GlutaMAX (Invitrogen, 100×), 100 units/ml penicillin and 100 µg/ml streptomycin (Fisher); for the next 4 days, cells were treated with human recombinant Sonic hedgehog (SHH, 200 ng/ml) in neuronal differentiation medium. […]
Cells cultured on coverslips or 24-well plates were washed with DPBS and then incubated with 5 µM Mito-SOX™ Red (Invitrogen, M36008), a mitochondrial superoxide indicator, for 10 min at 37 °C. For cells cultured on coverslips, the images were visualized by microscope, and quantification of images was then carried out using NIH ImageJ software. At least 100 cells per group were counted in the analysis.
Cells cultured on coverslips or 24-well plates were washed with DPBS and then incubated with 0.25 µM Tetramethylrhodamine, methyl ester (TMRM) (Invitrogen, T668), for 20 min at 37 °C. For cells cultured on coverslips, the images were visualized by microscope, and quantification of images was then carried out using NIH Fiji ImageJ software. At least 100 cells per group were counted in the analysis.
Cells were seeded in 24-well plates, followed by the indicated treatment. The ATP level in each well was determined using the ATP assay kit according to the manufacturer’s procedures (Cayman Chemical, 700410).

αSyn oligomer = αSyn oligomer ELISA, Tet-inducible αSyn SH-SY5Y cells; type: cell-based, human; details: 10 µM, two days, vs TAT, n = 4
Procedure: After one day incubation with doxycycline (1µM), αSyn tet-on inducible expression SHSY5Y cells were treated with TAT or CS2 peptides at 10 µM for another two days. The level of αSyn monomer released into culture medium was measured using LEGEND MAX human αSyn ELISA kit (448607, Biolegend). The level of extracellular and intracellular αSyn oligomers was measured using human alpha synuclein oligomer ELISA kit (MBS730762, Mybioresource).

Structure (SMILES): CC(C)[C@H](NC(=O)CNC(=O)CNC(=O)CCCCCNC(=O)[C@H](CCCNC(=N)N)NC(=O)[C@H](CCCNC(=N)N)NC(=O)[C@H](CCCNC(=N)N)NC(=O)[C@H](CCC(N)=O)NC(=O)[C@H](CCCNC(=N)N)NC(=O)[C@H](CCCNC(=N)N)NC(=O)[C@H](CCCCN)NC(=O)[C@H](CCCCN)NC(=O)[C@H](CCCNC(=N)N)NC(=O)CNC(=O)[C@@H](N)Cc1ccc(O)cc1)C(=O)N[C@H](C(=O)N[C@H](C(=O)N[C@@H](C)C(=O)O)[C@@H](C)O)C(C)C [CS2, TAT-C6-GGVVTA]
- ClpP peptidase activity restoration, WT αSyn (ClpP): restored ClpP peptidase activity
- ClpP peptidase activity, peptide alone (ClpP): neither TAT nor CS2 alone impaired ClpP activity
- ClpP peptidase activity restoration, A53T αSyn (ClpP; inhibition by A53T mutant αSyn, ac-WLA-AMC 50 µM, 0–30 min, representative of 4 experiments): restored ClpP peptidase activity
- mitochondrial ROS, iPSC neurons ([1]; Mito-SOX, n = 3): reduced mitochondrial ROS
- mitochondrial membrane potential, iPSC neurons ([1]; TMRM, n = 3): rescued mitochondrial membrane potential
- ATP content, iPSC neurons ([1]; n = 6): rescued mitochondrial membrane potential and ATP content
- extracellular αSyn oligomer (αSyn oligomer): decreased levels
- intracellular αSyn oligomer (αSyn oligomer): decreased levels
